Patent US12247004B2, “2-amino-N-(amino-oxo-aryl-lambda6-sulfanylidene)acetamide compounds and their therapeutic use” (Oxford Drug Design Limited, priority 2019, dated 2025)
In brackets after ≈: the same amount, converted by molar mass. Where a name gives a salt, the structure may show the parent alone. Read-outs that look alike come from different tables or passages of the source. Values belong to the molecule of their own block, whether it stands above or below them.

Assays:
[1] = molecular target: Leucyl-tRNA synthetase (LeuRS) (Escherichia coli (strain K12), UniProt P07813); assay: Leucyl-tRNA synthetase enzyme inhibition (AMP-Glo; single point % inhibition at 100 μM and IC50); assay type: biochemical
Leucyl-tRNA synthetase (LeuRS), sequence (P07813 whole entry, looked up): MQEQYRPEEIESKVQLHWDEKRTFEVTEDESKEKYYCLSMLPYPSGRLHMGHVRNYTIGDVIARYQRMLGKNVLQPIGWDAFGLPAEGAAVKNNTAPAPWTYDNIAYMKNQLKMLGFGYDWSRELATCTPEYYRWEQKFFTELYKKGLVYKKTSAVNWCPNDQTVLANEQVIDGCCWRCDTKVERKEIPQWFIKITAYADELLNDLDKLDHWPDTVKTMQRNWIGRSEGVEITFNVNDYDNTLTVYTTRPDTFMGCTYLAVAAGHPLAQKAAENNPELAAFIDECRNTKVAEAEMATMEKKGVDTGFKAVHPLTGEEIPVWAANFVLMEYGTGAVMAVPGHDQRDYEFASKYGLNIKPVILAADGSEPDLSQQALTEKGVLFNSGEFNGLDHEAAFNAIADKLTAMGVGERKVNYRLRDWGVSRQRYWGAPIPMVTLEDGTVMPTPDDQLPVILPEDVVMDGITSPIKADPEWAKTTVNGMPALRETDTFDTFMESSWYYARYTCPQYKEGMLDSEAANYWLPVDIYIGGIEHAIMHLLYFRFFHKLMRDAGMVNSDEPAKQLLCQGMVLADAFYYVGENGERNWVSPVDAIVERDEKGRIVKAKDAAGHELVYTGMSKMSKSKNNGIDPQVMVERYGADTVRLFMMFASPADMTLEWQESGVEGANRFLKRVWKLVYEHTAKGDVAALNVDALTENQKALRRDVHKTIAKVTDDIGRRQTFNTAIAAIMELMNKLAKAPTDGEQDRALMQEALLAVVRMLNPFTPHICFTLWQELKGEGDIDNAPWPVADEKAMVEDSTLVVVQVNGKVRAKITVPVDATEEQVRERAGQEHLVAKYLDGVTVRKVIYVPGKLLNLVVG
Description: Study 1—Enzyme Inhibition
The aminoacylation reaction catalyzed by aminoacyl-tRNA synthetases (aaRS) takes place in two steps. In the first step, aaRS activates its cognate amino acid with ATP; and in the second step the activated amino acid is loaded to its corresponding tRNA. This reaction can be summarized as follows: aaRS+aa+ATP=aaRS-aa-AMP+PPi aaRS-aa-AMP+tRNA=aa-tRNA+AMP+aaRS
wherein: aaRS, aminoacyl-tRNA synthetase; aa, amino acid; aaRS-aa-AMP, enzyme-bound to aminoacyl-adenylate; AMP, adenosine monophosphate; aa-tRNA, aminoacyl-tRNA, PPi, inorganic pyrophosphate.
a. Single Point Percentage Inhibition
The activity of the pathogenic aaRSs was monitored by measuring AMP production using the commercial kit AMP-Glo (Promega, Madison, USA).
Ligand stock solutions were prepared in 100% DMSO at 10 mM concentration. An assay buffer consisting of 100 mM Tris HCl pH 7.6, 40 mM MgCl, 20 mM KCl and 150 mM NaCl was prepared in dH2O.
Using the same enzymatic assay in a 384-well plate format, ten point concentration response curves were generated for each compound using a top concentration of 10 μM. The known inhibitor LeuAMS was used as a positive control for the LeuRS assay. 100% DMSO was used as a negative control. The IC50 was calculated based on non-linear regression analysis.

[2] = tested on: bacteria (ATCC reference strains); assay: Antibacterial activity, MIC by broth micro-dilution (CLSI)
[3] = E. coli LeuRS, read-out: Enzyme Inhibition - IC50, E. coli LeuRS
[4] = Acinetobacter baumannii, read-out: Antibacterial Activity (MIC), E = A. baumannii B1931
[5] = Escherichia coli, ATCC25922, read-out: Antibacterial Activity (MIC), A = E. coli ATCC 25922
[6] = Haemophilus influenzae, ATCC49247, read-out: Antibacterial Activity (MIC), F = H. influenzae ATCC 49247
[7] = Klebsiella pneumoniae, ATCC700603, read-out: Antibacterial Activity (MIC), C = K. pneumoniae ATCC 700603
[8] = Pseudomonas aeruginosa, ATCC27853, read-out: Antibacterial Activity (MIC), D = P. aeruginosa ATCC 27853

Structure (SMILES): CC(C)C[C@H](N)C(=O)N=[S@@](N)(=O)c1ccsc1Cl [ANASIA-092-2]
- IC50 [1, 3]: 1970 nM

Structure (SMILES): CC(C)C[C@H](N)C(=O)N=S(N)(=O)c1ccsc1C(N)=O (stereo partly drawn) [ANASIA-093, 3-(N′-(L-leucyl)sulfamidimidoyl)thiophene-2-carboxamide hydrochloride]
- IC50 [1, 3]: 1330 nM

Structure (SMILES): Cc1csc([S@](N)(=O)=NC(=O)[C@@H](N)CC(C)C)c1 [ANASIA-095-2]
- IC50 [1, 3]: 1890 nM

Structure (SMILES): CC(C)C[C@H](N)C(=O)N=S(N)(=O)c1cscc1C#N (stereo partly shown) [ANASIA-096]
- IC50 [1, 3]: 700 nM

Structure (SMILES): CC(C)C[C@H](N)C(=O)N=S(N)(=O)c1cscc1C(N)=O (stereo partly drawn) [ANASIA-097, 4-(N′-(L-leucyl)sulfamidimidoyl)thiophene-3-carboxamide 2,2,2-trifluoroacetate]
- IC50 [1, 3]: 2160 nM

Structure (SMILES): Cc1cc([S@](N)(=O)=NC(=O)[C@@H](N)CC(C)C)cs1 [ANASIA-098-2]
- IC50 [1, 3]: 5140 nM

Structure (SMILES): CC(C)C[C@H](N)C(=O)N=[S@@](N)(=O)c1csc(Cl)c1 [ANASIA-099-2]
- IC50 [1, 3]: 511 nM

Structure (SMILES): CC(C)C[C@H](N)C(=O)N=S(N)(=O)c1csc(Cl)c1 (stereo partly shown) [ANASIA-099]
- MIC [2, 4]: 32 µg/mL (≈ 103 µM)
- MIC [2, 5]: 1 µg/mL (≈ 3.23 µM)
- MIC ([2]; Escherichia coli, BAA2469, read-out: Antibacterial Activity (MIC), G = E. coli BAA-2469): 2.83 µg/mL (≈ 9.13 µM)
- MIC [2, 6]: 2 µg/mL (≈ 6.45 µM)
- MIC [2, 7]: 16 µg/mL (≈ 51.6 µM)
- MIC [2, 8]: > 64 µg/mL

Structure (SMILES): CC(C)C[C@H](N)C(=O)N=[S@@](N)(=O)c1csc2ccsc12 [ANASIA-100-2]
- IC50 [1, 3]: 945 nM

Structure (SMILES): Cc1csc([S@](N)(=O)=NC(=O)[C@@H](N)CC(C)C)c1C [ANASIA-104-2]
- IC50 [1, 3]: 3250 nM

Structure (SMILES): C=Cc1ccsc1S(N)(=O)=NC(=O)[C@@H](N)CC(C)C (stereo partly drawn) [ANASIA-106, (2S)-2-amino-N-(amino(oxo)(3-vinylthiophen-2-yl)-λ6-sulfanylidene)-4-methylpentanamide hydrochloride]
- IC50 [1, 3]: 897 nM

Structure (SMILES): CC(C)C[C@H](N)C(=O)N=[S@@](N)(=O)c1scc(Br)c1Br [ANASIA-107-2]
- IC50 [1, 3]: 1290 nM

Structure (SMILES): COc1ccsc1[S@](N)(=O)=NC(=O)[C@@H](N)CC(C)C [ANASIA-108-2]
- IC50 [1, 3]: 4310 nM

Structure (SMILES): CC(C)C[C@H](N)C(=O)N=[S@](N)(=O)c1sccc1C(C)C [ANASIA-110-1]
- IC50 [1]: 425 nM

Structure (SMILES): CC(C)C[C@H](N)C(=O)N=[S@@](N)(=O)c1sccc1C(C)C [ANASIA-110-2]
- IC50 [1, 3]: 6240 nM

Structure (SMILES): CC(C)C[C@H](N)C(=O)N=[S@](N)(=O)c1ccc(C(C)C)s1 [ANASIA-111-1]
- IC50 [1]: 779 nM

Structure (SMILES): CC(C)C[C@H](N)C(=O)N=[S@](N)(=O)c1cccc(Oc2ccccc2)c1 [ANASIA-114-1]
- IC50 [1]: 61.8 nM

Structure (SMILES): CC(C)C[C@H](N)C(=O)N=[S@@](N)(=O)c1cccc(Oc2ccccc2)c1 [ANASIA-114-2]
- IC50 [1, 3]: 982 nM

Structure (SMILES): CCc1ccsc1[S@](N)(=O)=NC(=O)[C@@H](N)CC(C)C [ANASIA-119-2]
- IC50 [1, 3]: 4650 nM

Structure (SMILES): CC(C)C[C@H](N)C(=O)N=[S@@](N)(=O)c1sc(Cl)cc1Cl [ANASIA-120-2]
- IC50 [1, 3]: 7600 nM

Structure (SMILES): CC(C)C[C@H](N)C(=O)N=[S@@](N)(=O)c1cc(Cl)c(Cl)s1 [ANASIA-121-2]
- IC50 [1, 3]: 1100 nM

Structure (SMILES): Cc1c([S@](N)(=O)=NC(=O)[C@@H](N)CC(C)C)csc1Cl [ANASIA-122-2]
- IC50 [1, 3]: 1930 nM

Structure (SMILES): CC(C)C[C@H](N)C(=O)N=[S@@](N)(=O)c1cc(Cl)cs1 [ANASIA-124-2]
- IC50 [1, 3]: 4800 nM

Structure (SMILES): CC(C)C[C@H](N)C(=O)N=[S@@](N)(=O)c1csc(Cl)c1Cl [ANASIA-125-2]
- IC50 [1, 3]: 1930 nM

- MIC [2, 4]: 16 µg/mL (≈ 21.4 µM)
- MIC ([2]; Enterobacter cloacae, read-out: Antibacterial Activity (MIC), B = Enterobacter cloacae B1966): 16 µg/mL (≈ 21.4 µM)
- MIC [2, 5]: 4 µg/mL (≈ 5.34 µM)
- MIC [2, 6]: 2 µg/mL (≈ 2.67 µM)
- MIC [2, 7]: 32 µg/mL (≈ 42.7 µM)
- MIC [2, 8]: 32 µg/mL (≈ 42.7 µM)
Structure (SMILES): CC[C@H]1OC(=O)[C@H](C)[C@@H](O[C@H]2C[C@@](C)(OC)[C@@H](O)[C@H](C)O2)[C@H](C)[C@@H](O[C@@H]2O[C@H](C)C[C@H](N(C)C)[C@H]2O)[C@](C)(O)C[C@@H](C)CN(C)[C@H](C)[C@@H](O)[C@]1(C)O [Azithromycin]

- Antibacterial Activity (MIC), E = A. baumannii B1931 [2]: 2 µg/mL
- Antibacterial Activity (MIC), A = E. coli ATCC 25922 [2]: 0.25 µg/mL
- Antibacterial Activity (MIC), G = E. coli BAA-2469 [2]: >64.0 µg/mL
- Antibacterial Activity (MIC), B = Enterobacter cloacae B1966 [2]: 0.5 µg/mL
- Antibacterial Activity (MIC), F = H. influenzae ATCC 49247 [2]: 16 µg/mL
- Antibacterial Activity (MIC), C = K. pneumoniae ATCC 700603 [2]: >64 µg/mL
- Antibacterial Activity (MIC), D = P. aeruginosa ATCC 27853 [2]: >64 µg/mL
Structure (SMILES): CC(C)(O/N=C(\C(=O)N[C@@H]1C(=O)N2C(C(=O)[O-])=C(C[n+]3ccccc3)CS[C@H]12)c1csc(N)n1)C(=O)O [Ceftazidime]

- Antibacterial Activity (MIC), E = A. baumannii B1931 [2]: 8 µg/mL
- Antibacterial Activity (MIC), A = E. coli ATCC 25922 [2]: 0.5 µg/mL
- Antibacterial Activity (MIC), G = E. coli BAA-2469 [2]: >62.0 µg/mL
- Antibacterial Activity (MIC), B = Enterobacter cloacae B1966 [2]: 0.5 µg/mL
- Antibacterial Activity (MIC), F = H. influenzae ATCC 49247 [2]: 4 µg/mL
- Antibacterial Activity (MIC), C = K. pneumoniae ATCC 700603 [2]: 0.5 µg/mL
- Antibacterial Activity (MIC), D = P. aeruginosa ATCC 27853 [2]: >64 µg/mL
Structure (SMILES): C[C@@H](O)[C@H]1C(=O)N2C(C(=O)O)=C(S[C@@H]3CN[C@H](C(=O)N(C)C)C3)[C@H](C)[C@H]12 [Meropenem]
